Where two headings read alike, the source gives them in different places.
Tests used:
Assay in all cases: biochemical
Design in all cases: Eurofins KinaseProfiler full panel at Km ATP, residual kinase activity (%) relative to DMSO
DYRK3(h) = target: T1, DYRK3(h) (Homo sapiens, UniProt O43781)
T1 sequence (O43781 1-588): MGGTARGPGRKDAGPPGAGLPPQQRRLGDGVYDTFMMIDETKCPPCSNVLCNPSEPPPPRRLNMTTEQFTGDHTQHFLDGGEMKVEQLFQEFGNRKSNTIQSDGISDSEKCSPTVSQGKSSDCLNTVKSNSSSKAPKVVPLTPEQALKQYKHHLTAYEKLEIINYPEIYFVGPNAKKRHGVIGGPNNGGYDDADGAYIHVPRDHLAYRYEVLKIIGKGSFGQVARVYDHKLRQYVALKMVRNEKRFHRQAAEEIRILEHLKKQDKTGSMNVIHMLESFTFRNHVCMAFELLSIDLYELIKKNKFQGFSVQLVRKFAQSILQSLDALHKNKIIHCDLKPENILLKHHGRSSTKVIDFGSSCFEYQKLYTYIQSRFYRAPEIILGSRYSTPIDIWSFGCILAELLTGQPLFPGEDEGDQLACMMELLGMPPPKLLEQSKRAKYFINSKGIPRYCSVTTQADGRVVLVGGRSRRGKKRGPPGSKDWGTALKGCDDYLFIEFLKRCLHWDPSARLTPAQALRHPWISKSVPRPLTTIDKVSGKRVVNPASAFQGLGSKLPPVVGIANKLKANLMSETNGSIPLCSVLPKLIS
How it was run: (§1)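 Two 10 µM single-concentration screens were run: a competition-binding screen, in which DNA-tagged kinase bound to immobilized ligands was quantified by qPCR, and a radiometric activity panel at Km ATP. Each is expressed as residual kinase activity (%).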

IGF-1R(h), activated = target: T2, IGF-1R(h), activated (Homo sapiens, UniProt P08069)
T2 construct: gene IGF1R
How it was run: as §1

GSK3β(h) = target: T3, GSK3β(h) (Homo sapiens, UniProt P49841)
T3 construct: gene GSK3B
How it was run: as §1

Fms(h) = target: T4, Fms(h) (Homo sapiens, UniProt P07333)
T4 construct: gene CSF1R
How it was run: as §1

DRAK2(h) = target: T5, DRAK2(h) (Homo sapiens, UniProt O94768)
T5 construct: gene STK17B
T5 sequence (O94768 1-372): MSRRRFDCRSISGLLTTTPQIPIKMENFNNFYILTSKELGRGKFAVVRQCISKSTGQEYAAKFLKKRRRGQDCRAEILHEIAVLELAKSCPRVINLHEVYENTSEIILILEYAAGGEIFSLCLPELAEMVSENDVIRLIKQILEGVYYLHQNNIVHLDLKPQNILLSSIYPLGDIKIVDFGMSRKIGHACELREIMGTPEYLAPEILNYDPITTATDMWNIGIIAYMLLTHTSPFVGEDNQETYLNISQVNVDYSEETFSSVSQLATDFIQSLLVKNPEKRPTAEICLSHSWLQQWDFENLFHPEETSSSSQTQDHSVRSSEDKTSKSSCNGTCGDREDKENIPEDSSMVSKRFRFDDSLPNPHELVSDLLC
How it was run: as §1

GRK1(h) = target: T6, GRK1(h) (Homo sapiens, UniProt Q15835)
T6 sequence (Q15835 1-563): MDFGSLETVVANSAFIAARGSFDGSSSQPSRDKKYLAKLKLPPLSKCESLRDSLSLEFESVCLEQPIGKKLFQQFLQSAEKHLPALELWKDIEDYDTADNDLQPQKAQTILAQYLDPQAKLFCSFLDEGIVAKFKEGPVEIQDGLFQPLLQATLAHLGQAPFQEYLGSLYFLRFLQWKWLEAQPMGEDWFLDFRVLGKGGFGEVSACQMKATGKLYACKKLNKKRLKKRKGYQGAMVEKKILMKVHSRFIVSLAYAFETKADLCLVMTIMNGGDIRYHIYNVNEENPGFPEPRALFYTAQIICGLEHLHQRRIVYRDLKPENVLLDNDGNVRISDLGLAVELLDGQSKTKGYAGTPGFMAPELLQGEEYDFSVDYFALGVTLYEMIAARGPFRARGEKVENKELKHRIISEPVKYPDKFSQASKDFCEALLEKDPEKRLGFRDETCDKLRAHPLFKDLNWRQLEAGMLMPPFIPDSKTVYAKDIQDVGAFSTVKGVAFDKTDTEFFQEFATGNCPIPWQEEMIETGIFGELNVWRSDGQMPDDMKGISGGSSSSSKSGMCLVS
How it was run: as §1

PIP4K2a(h) = target: T7, PIP4K2a(h) (Homo sapiens, UniProt P48426)
T7 sequence (P48426 1-406): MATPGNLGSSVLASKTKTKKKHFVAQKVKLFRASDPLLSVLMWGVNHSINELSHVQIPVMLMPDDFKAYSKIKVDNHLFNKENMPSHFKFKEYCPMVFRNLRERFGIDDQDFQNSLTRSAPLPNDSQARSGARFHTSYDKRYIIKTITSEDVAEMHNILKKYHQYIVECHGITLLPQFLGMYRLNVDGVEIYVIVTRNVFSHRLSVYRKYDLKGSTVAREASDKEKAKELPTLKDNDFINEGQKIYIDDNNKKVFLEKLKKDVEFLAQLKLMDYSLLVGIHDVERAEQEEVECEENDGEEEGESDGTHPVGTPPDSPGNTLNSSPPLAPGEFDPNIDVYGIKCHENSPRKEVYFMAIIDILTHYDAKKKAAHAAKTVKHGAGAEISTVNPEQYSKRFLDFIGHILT
How it was run: as §1

[1] = read-out: Residual activity (%) Spautin-1 5aa
[2] = read-out: Residual activity (%) 5as
[3] = read-out: Residual activity (%) 5at
[4] = read-out: Residual activity (%) 5ay

T2 sequence (P08069 whole entry): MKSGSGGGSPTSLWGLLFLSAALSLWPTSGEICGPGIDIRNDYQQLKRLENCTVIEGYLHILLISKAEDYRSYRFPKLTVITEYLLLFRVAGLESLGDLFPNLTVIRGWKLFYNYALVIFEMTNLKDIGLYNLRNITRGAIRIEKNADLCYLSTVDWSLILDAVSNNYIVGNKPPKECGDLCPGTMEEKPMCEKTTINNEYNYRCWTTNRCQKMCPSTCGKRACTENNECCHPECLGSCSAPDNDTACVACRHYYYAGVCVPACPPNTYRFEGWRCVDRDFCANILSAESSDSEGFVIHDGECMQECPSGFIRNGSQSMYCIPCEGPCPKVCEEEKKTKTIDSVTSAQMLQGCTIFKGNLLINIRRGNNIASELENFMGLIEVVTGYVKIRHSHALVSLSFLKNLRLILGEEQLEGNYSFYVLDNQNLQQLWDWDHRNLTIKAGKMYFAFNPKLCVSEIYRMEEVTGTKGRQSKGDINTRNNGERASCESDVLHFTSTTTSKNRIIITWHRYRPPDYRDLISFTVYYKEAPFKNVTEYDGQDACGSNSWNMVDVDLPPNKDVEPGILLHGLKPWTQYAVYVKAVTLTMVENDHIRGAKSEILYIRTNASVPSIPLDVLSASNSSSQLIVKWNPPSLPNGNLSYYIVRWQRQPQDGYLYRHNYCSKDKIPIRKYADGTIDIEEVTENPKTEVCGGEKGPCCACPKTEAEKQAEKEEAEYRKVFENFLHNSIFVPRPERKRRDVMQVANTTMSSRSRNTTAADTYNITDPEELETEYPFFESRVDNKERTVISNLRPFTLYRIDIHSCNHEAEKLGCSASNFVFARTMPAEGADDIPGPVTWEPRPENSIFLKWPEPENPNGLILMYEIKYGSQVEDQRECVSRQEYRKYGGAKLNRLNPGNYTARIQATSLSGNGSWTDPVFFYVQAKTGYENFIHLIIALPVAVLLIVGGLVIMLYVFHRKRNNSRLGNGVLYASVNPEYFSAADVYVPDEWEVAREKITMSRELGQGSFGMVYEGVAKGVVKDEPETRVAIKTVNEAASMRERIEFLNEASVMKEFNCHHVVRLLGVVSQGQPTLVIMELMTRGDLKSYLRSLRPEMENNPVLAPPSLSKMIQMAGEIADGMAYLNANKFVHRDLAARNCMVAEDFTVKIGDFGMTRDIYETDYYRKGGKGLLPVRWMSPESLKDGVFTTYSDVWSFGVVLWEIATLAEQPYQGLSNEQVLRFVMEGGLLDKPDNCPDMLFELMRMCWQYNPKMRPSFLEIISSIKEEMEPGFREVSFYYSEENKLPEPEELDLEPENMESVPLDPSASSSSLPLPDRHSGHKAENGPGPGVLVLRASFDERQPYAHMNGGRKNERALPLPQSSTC
T4 sequence (P07333 whole entry): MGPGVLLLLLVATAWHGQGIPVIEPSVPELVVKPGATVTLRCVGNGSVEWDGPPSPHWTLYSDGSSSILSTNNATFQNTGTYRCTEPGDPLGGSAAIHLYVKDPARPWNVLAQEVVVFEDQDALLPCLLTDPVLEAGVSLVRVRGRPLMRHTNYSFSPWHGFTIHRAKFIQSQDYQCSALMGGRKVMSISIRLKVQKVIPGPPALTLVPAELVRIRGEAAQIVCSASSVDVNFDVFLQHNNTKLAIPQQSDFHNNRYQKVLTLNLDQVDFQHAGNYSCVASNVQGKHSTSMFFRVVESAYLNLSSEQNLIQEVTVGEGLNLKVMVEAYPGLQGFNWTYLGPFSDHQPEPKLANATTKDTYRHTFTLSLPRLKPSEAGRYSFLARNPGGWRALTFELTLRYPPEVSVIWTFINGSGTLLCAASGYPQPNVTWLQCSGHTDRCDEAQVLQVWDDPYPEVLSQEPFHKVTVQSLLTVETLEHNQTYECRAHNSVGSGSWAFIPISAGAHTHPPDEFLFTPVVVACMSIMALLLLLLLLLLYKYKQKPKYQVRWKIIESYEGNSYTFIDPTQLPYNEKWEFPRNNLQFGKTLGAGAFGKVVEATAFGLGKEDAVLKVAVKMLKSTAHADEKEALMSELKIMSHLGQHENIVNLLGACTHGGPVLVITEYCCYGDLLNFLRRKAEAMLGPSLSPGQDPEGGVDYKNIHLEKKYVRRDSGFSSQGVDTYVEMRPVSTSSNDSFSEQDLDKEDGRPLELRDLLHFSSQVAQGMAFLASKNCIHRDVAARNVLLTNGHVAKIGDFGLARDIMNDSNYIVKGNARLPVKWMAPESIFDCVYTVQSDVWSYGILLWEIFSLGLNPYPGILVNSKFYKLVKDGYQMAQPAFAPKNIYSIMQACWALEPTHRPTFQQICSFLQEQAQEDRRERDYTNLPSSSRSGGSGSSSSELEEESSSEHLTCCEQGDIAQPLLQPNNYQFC
T3 sequence (P49841 whole entry): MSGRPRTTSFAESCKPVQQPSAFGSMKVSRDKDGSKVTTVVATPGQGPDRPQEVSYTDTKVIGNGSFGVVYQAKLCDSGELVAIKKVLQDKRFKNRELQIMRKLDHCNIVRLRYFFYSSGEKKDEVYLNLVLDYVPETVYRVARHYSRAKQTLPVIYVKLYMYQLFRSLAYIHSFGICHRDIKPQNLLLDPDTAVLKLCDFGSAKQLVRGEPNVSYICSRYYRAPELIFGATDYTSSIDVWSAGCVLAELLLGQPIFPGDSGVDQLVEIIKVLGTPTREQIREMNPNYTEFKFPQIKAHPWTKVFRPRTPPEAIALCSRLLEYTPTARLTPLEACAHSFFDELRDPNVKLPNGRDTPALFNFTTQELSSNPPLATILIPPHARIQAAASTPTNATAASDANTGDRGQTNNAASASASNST

Fc1ccc(CNc2ncnc3ccc(F)cc23)cc1 [5aa, 6-Fluoro-N-(4-fluorobenzyl)-4-Quinazolinamine]
remaining activity at 10 µM (DYRK3(h); [1]): 117% | remaining activity at 10 µM (IGF-1R(h), activated; [1]): 78% | remaining activity at 10 µM (GSK3β(h); [1]): 85% | remaining activity at 10 µM (Fms(h); [1]): 94% | remaining activity at 10 µM (DRAK2(h); [1]): 88% | remaining activity at 10 µM (GRK1(h); [1]): 101% | remaining activity at 10 µM (PIP4K2a(h); [1]): 93%

Fc1ccc(CCNc2ncnc3ccc(F)cc23)cc1 [5as, 6-Fluoro-N-[2-(4-Fluorophenyl)Ethyl]-4-Quinazolinamine]
remaining activity at 10 µM (DYRK3(h); [2]): 98% | remaining activity at 10 µM (IGF-1R(h), activated; [2]): 72% | remaining activity at 10 µM (GSK3β(h); [2]): 91% | remaining activity at 10 µM (Fms(h); [2]): 72% | remaining activity at 10 µM (DRAK2(h); [2]): 73% | remaining activity at 10 µM (GRK1(h); [2]): 79% | remaining activity at 10 µM (PIP4K2a(h); [2]): 96%

Fc1ccc2ncnc(NCCc3ccc(Cl)cc3)c2c1 [5at, N-[2-(4-Chlorophenyl)Ethyl]-6-Fluoro-4-Quinazolinamine]
remaining activity at 10 µM (DYRK3(h); [3]): 98% | remaining activity at 10 µM (IGF-1R(h), activated; [3]): 76% | remaining activity at 10 µM (GSK3β(h); [3]): 97% | remaining activity at 10 µM (Fms(h); [3]): 64% | remaining activity at 10 µM (DRAK2(h); [3]): 88% | remaining activity at 10 µM (GRK1(h); [3]): 81% | remaining activity at 10 µM (PIP4K2a(h); [3]): 92%

COc1ccc2ncnc(Nc3cccc(F)c3)c2c1 [5ay, N-(3-Fluorophenyl)-6-Methoxy-4-Quinazolinamine]
remaining activity at 10 µM (DYRK3(h); [4]): 57% | remaining activity at 10 µM (IGF-1R(h), activated; [4]): 73% | remaining activity at 10 µM (GSK3β(h); [4]): 76% | remaining activity at 10 µM (Fms(h); [4]): 90% | remaining activity at 10 µM (DRAK2(h); [4]): 65% | remaining activity at 10 µM (GRK1(h); [4]): 88% | remaining activity at 10 µM (PIP4K2a(h); [4]): 102%
